From PMC9486805, “Identification of a Phage Display-Derived Peptide Interacting with the N-Terminal Region of Factor VII Activating Protease (FSAP) Enables Characterization of Zymogen Activation” (ACS Chemical Biology, 2022)

Legend:
pro-FSAP in human plasma [1] = biological target: T1, pro-FSAP in human plasma (Homo sapiens, UniProt Q14520); assay: Activation of endogenous pro-FSAP in plasma, fluorogenic substrate turnover; type: biochemical
T1 construct: from tissue; host or cells: human hirudin or citrate plasma from healthy donors, diluted 1:12
Experimental: Human citrate plasma (0.38% w/v) or hirudin plasma (25 μg/mL Lepirudin) was obtained from five healthy donors. Plasma was diluted at 1:12 and mixed with various test substances that potentially activate or inhibit pro-FSAP. Ac–Ala–Lys–Nle–Arg–AMC (amino–methyl–coumarin) was used as a sensitive and specific substrate for FSAP.[35] Hydrolysis of the fluorogenic substrates was measured using a Synergy HI plate reader with excitation at 320 nm and emission at 460 nm at 37 °C for 60 min. The maximal velocity was calculated from the linear part of the progress curve. In limited experiments, the second-generation fluorogenic FSAP substrate (Ac–Pro–DTyr–Lys–Arg–AMC)[34] was used. Pro-uPA activation, formation of FSAP−α2-antiplasmin, and western blotting with anti-FSAP antibodies were also used to monitor pro-FSAP activation.

ΔEGF3 mutant = assay: Binding of biotinylated peptides to captured ΔEGF3 mutant; design: species or system human; settings: peptide 1 μM; triplicate wells (Fig 2E)
Experimental: Figure 2 NNKC9/41 interacts with the NTR of pro-FSAP: (A) To determine peptide binding to pro-FSAP, wells were coated with 2 μg/mL pro-FSAP and biotinylated NNKC9/41 and NNK11/189 and their respective scrambled controls were added in different concentration (0–5 μM). Peroxidase-labeled streptavidin was used to detect peptide binding. (B) Same procedure as in (A) except that different proteins were immobilized and biotinylated NNKC9/41 (0–30 μM) was added and its binding was measured. (C) Schematic structure of pro-FSAP with the heavy chain consisting of an NTR, three EGF domains, and a kringle domain, followed by the light chain harboring the serine protease domain (SPD). The binding domains of antibodies used in this study are indicated. (D) Recombinant complete heavy chain (heavy) and truncated heavy chain variants ΔNTR, ΔEGF1, ΔEGF2, ΔEGF3, and ΔKringle were expressed in bacteria and analyzed by sodium dodecyl sulfate poly(acrylamide) gel electrophoresis (SDS-PAGE) followed by Coomassie staining. […] Biotinylated NNKC9/41 or the scrambled control peptide was added at 1 μM and peptide binding was measured with peroxidase-linked streptavidin. […]
Wells were coated with anti-FSAP polyclonal antibodies (5 μg/mL). […] Subsequently, the plates were washed, and bound peptides were detected with peroxidase-coupled streptavidin. […]

plasmin = assay: Specificity: plasmin; type: biochemical; settings: plasmin 20 nM; peptide 0-50 μM; CS41 (Fig S7)
Experimental: Fig S7. […]
(§1) Bend, IN, USA) except plasminogen and FSAP, which were isolated in house; and pro-uPA was from Grünenthal (Stolberg, Germany). All chromogenic substrates were from Hyphen Biomed (Neuville Sur Oise, France). Experiments were carried out in TBS with Tween-20 (0.1 % wt/ vol) BSA (0.3% wt/vol) and CaCl2 (2 mM). Absorbance at 405 nm was measured over time and the enzyme activity is depicted was measured in duplicates (mean + or -range) and similar results were obtained in 3

factor XII = assay: Specificity towards pro-enzymes: factor XII; type: biochemical; settings: Factor XII 100 nM; peptide 0-50 μM; CS31 (Fig S7)
Experimental: (§2) Fig S7. Specificity of NNKC9/41 towards other pro-enzymes: Zymogens and their respective active enzymes were incubated with NNKC9/41 or Ser-Ser linear peptide (0-50 μM) and the enzyme activity was monitored using respective chromogenic substrates. Activity of Factor XII(100 nM) and Factor XIIa (20 nM) was measured with the substrate CS31 (1000 µM). Pro-thrombin (100 nM) and thrombin (20 nM) […]
as §1

Factor XIIa = assay: Specificity: factor XIIa; type: biochemical; settings: Factor XIIa 20 nM; peptide 0-50 μM; CS31 (Fig S7)
Experimental: as §2, §1

pro-FSAP in WT/MI plasma = assay: Substrate turnover in WT/MI plasma; type: biochemical, human; settings: WT/MI citrate plasma 1:12; 25 μM (Fig 6A)
Experimental: (§3) Figure 6 Pro-FSAP activation and clotting in plasma by NNKC9/41: (A) citrate plasma (1:12 dilution) from donors with WT/WT, WT/MI, and MI/MI genotypes and WT-FSAP-deficient plasma (FSAP-DP) were compared. Substrate turnover was monitored after addition of NNKC9/41 or the Ser–Ser linear peptide (25 μM each). Results are shown as mean + range of duplicate wells. (B) Pooled prothrombin-deficient citrated plasma (1:5 dilution) was recalcified with 10 mM CaCl2 and incubated with NNKC9/41 or scrambled control peptide (0–25 μM each) for 60 min at 37 °C in the presence or absence of the FSAP-inhibitory MA-FSAP-38C7 (5 μg/mL). Initiation of clotting was achieved by adding the tissue factor/phospholipid and prothrombin complex concentrate. Clotting time was measured as diluted prothrombin time (dPT) in seconds. Data are the mean of three independent experiments. The relative dPT in % of the untreated control is presented as mean ± standard error (SE) (*p <0.05, two-way analysis of variance (ANOVA) and Bonferroni post-test).
(§4) Human citrate plasma (0.38% w/v) or hirudin plasma (25 μg/mL Lepirudin) was obtained from five healthy donors. […] Hydrolysis of the fluorogenic substrates was measured using a Synergy HI plate reader with excitation at 320 nm and emission at 460 nm at 37 °C for 60 min. The maximal velocity was calculated from the linear part of the progress curve. […]

pro-FSAP in MI/MI plasma = assay: Substrate turnover in MI/MI plasma; type: biochemical, human; settings: MI/MI citrate plasma 1:12; 25 μM (Fig 6A)
Experimental: as §3, §4

pro-FSAP in human plasma [2] = biological target: T1, pro-FSAP in human plasma; assay: Activation of endogenous pro-FSAP in plasma, fluorogenic substrate turnover; type: biochemical; remark: listed apart in the source

T1 sequence (Q14520 24-560): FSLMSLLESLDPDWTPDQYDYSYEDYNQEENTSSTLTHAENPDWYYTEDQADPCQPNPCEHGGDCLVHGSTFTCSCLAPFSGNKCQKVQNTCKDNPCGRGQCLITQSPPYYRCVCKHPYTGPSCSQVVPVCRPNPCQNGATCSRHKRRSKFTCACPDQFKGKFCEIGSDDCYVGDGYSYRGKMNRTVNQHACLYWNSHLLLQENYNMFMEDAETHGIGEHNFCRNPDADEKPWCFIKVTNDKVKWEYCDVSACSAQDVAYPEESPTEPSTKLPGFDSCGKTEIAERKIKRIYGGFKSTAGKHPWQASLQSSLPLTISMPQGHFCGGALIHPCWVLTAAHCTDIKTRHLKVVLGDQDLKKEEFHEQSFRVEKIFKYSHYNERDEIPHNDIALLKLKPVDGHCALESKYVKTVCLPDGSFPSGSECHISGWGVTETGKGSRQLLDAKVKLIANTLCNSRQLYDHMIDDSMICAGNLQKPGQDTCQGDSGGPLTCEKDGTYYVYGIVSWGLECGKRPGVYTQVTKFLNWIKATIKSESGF

Q: For CRGAMWMYKRC [NNKC9/41], which “inhibitory effect of citrate after recalcification” value (pro-FSAP in human plasma [1]; citrate plasma 1:12, recalcified, data not shown) is on record?
A: reversed by recalcification

Q: What about the “effect in citrate plasma 1:12” value (pro-FSAP in human plasma [1]; citrate plasma 1:12, 10 μM, 3 donors (Fig S5)) of the same sequence?
A: weak

Q: What about the “fluorogenic substrate turnover vs histones” value (pro-FSAP in human plasma [1]; hirudin plasma 1:12, NNKC9/41 0–25 μM, histones 0–25 μg/mL, three donors (Fig 4A)) of the same sequence?
A: stronger effect than histones

Q: What about the “pro-FSAP activation in plasma” value (pro-FSAP in human plasma [1]; hirudin plasma 1:12, peptides 25 μM, histones 25 μg/mL, Ac–Ala–Lys–Nle–Arg–AMC, duplicate wells (Fig 1D)) of the same sequence?
A: robust activation of pro-FSAP comparable to that with histones

Q: What about the “pro-FSAP activation in hirudin plasma” value (pro-FSAP in human plasma [1]; hirudin plasma, dilutions 1:2 to 1:12, 10 μM, 3 donors (Fig S5)) of the same sequence?
A: activated pro-FSAP in plasma

Q: And the “lag time of pro-FSAP activation” value (pro-FSAP in human plasma [1]; plasma, compared to histones (Fig 1D))?
A: > 15 min

Q: And the “peptide binding to ΔEGF3 mutant” value (ΔEGF3 mutant)?
A: higher binding

Q: And the effect on activity (plasmin)?
A: did not influence the activity

Q: What about the effect on activity (factor XII) of the same sequence?
A: did not influence the activity

Q: What about the effect on activity (Factor XIIa) of the same sequence?
A: did not influence the activity

Q: And the substrate turnover (pro-FSAP in WT/MI plasma)?
A: low turnover

Q: What about the substrate turnover (pro-FSAP in MI/MI plasma) of the same sequence?
A: none

Q: And the “effect in citrate plasma 1:2” value (pro-FSAP in human plasma [2]; citrate plasma 1:2, 10 μM, 3 donors (Fig S5))?
A: completely abolished

Q: What about the “pro-FSAP activation in 1:2 diluted plasma vs higher dilution” value (pro-FSAP in human plasma [2]; hirudin and citrate plasma 1:2 (Fig S5)) of the same sequence?
A: lower pro-FSAP activation
